Reference: patent publication US20250382332A1, “NOVEL ALPHA-FACTOR BASED PEPTIDES WITH ANTIFUNGAL ACTIVITY” (INVAIO SCIENCES, INC., priority 2024, published 2025)
Peptide text beside a SMILES is read from it.

Test system: Botrytis cinerea (B05.10)
Test: Resazurin antifungal assay of 180 alpha-factor peptide variants towards Botrytis (Example 2)
Assay type: cell-based
Conditions: % inhibition of fungal growth, Botrytis conidia, resazurin; for Inhibition at 50 μM: peptide 50 μM; for Inhibition at 100 μM: peptide 100 μM
Method in brief: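 Resazurin viability read-out (570/620 nm fluorescence) after a 24 h, 20° C incubation of B05.10 conidia, 5000 per well, with peptide at final 10-100 μM. Growth inhibition (%) was derived by subtracting conidia-only fluorescence; four replicates per treatment.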

## CSCC[C@H](NC(=O)[C@@H]1CCCN1C(=O)[C@H](CCC(N)=O)NC(=O)CNC(=O)[C@@H]1CCCN1C(=O)[C@H](Cc1ccccc1)NC(=O)[C@H](CC(C)C)NC(=O)[C@H](CCC(N)=O)NC(=O)[C@@H](NC(=O)[C@H](Cc1c[nH]c2ccccc12)NC(=O)[C@H](Cc1c[nH]cn1)NC(=O)[C@@H](N)CCCCN)C(C)C)C(=O)N[C@@H](Cc1ccc(O)cc1)C(=O)O [compound 144] (H-KHWVQLFPGQPMY-OH; N-terminus and C-terminus assumed)
  Inhibition at 50 μM: <90%
  Inhibition at 100 μM: 99.99%

## CSCC[C@H](NC(=O)[C@@H]1CCCN1C(=O)[C@H](CCC(N)=O)NC(=O)CNC(=O)[C@H](CC(N)=O)NC(=O)[C@H](CCCCN)NC(=O)[C@H](Cc1ccccc1)NC(=O)[C@H](CC(N)=O)NC(=O)[C@H](CC(C)C)NC(=O)[C@H](Cc1c[nH]c2ccccc12)NC(=O)[C@H](CCC(=O)O)NC(=O)[C@@H](N)CCCCN)C(=O)N[C@@H](Cc1ccc(O)cc1)C(=O)O [compound 145] (H-KEWLNFKNGQPMY-OH; N-terminus and C-terminus assumed)
  Inhibition at 50 μM: <90%
  Inhibition at 100 μM: <90%

## CSCC[C@H](NC(=O)[C@@H]1CCCN1C(=O)[C@H](CCC(N)=O)NC(=O)CNC(=O)[C@@H]1CCCN1C(=O)[C@H](Cc1c[nH]c2ccccc12)NC(=O)[C@H](Cc1ccccc1)NC(=O)[C@H](CCC(N)=O)NC(=O)CNC(=O)[C@@H](NC(=O)[C@H](CCCNC(=N)N)NC(=O)[C@@H](N)Cc1c[nH]c2ccccc12)[C@@H](C)O)C(=O)N[C@@H](Cc1ccc(O)cc1)C(=O)O [compound 146] (H-WRTGQFWPGQPMY-OH; N-terminus and C-terminus assumed)
  Inhibition at 50 μM: <90%
  Inhibition at 100 μM: <90%

## CSCC[C@H](NC(=O)[C@@H]1CCCN1C(=O)[C@H](CCC(N)=O)NC(=O)CNC(=O)[C@H](CCCNC(=N)N)NC(=O)[C@H](CCCCN)NC(=O)[C@H](CC(C)C)NC(=O)[C@H](CCC(N)=O)NC(=O)CNC(=O)[C@H](CC(=O)O)NC(=O)[C@H](Cc1c[nH]cn1)NC(=O)[C@@H]1CCCN1)C(=O)N[C@@H](Cc1ccc(O)cc1)C(=O)O [compound 147] (H-PHDGQLKRGQPMY-OH; N-terminus and C-terminus assumed)
  Inhibition at 50 μM: <90%
  Inhibition at 100 μM: <90%

## CSCC[C@H](NC(=O)[C@@H]1CCCN1C(=O)[C@H](CCC(=O)O)NC(=O)CNC(=O)[C@@H]1CCCN1C(=O)[C@H](CCCCN)NC(=O)[C@H](CC(C)C)NC(=O)[C@H](CC(N)=O)NC(=O)[C@H](CC(C)C)NC(=O)[C@H](Cc1c[nH]c2ccccc12)NC(=O)[C@H](CCCCN)NC(=O)[C@@H]1CCCN1)C(=O)N[C@@H](Cc1ccc(O)cc1)C(=O)O [compound 148] (H-PKWLNLKPGEPMY-OH; N-terminus and C-terminus assumed)
  Inhibition at 50 μM: <90%
  Inhibition at 100 μM: <90%

## CSCC[C@H](NC(=O)[C@@H]1CCCN1C(=O)[C@H](CCC(N)=O)NC(=O)CNC(=O)[C@@H]1CCCN1C(=O)[C@H](CCSC)NC(=O)[C@H](CC(C)C)NC(=O)[C@H](CCCCN)NC(=O)[C@H](CC(C)C)NC(=O)[C@@H](NC(=O)[C@H](CCCNC(=N)N)NC(=O)[C@@H](N)Cc1c[nH]c2ccccc12)C(C)C)C(=O)N[C@@H](Cc1ccc(O)cc1)C(=O)O [compound 149] (H-WRVLKLMPGQPMY-OH; N-terminus and C-terminus assumed)
  Inhibition at 50 μM: <90%
  Inhibition at 100 μM: <90%

## CC[C@H](C)[C@H](NC(=O)[C@H](CCC(N)=O)NC(=O)[C@H](CC(C)C)NC(=O)[C@H](Cc1ccccc1)NC(=O)[C@H](Cc1c[nH]cn1)NC(=O)[C@@H](N)Cc1c[nH]c2ccccc12)C(=O)N[C@@H](CCCCN)C(=O)N1CCC[C@H]1C(=O)NCC(=O)N[C@@H](CCC(=O)O)C(=O)N1CCC[C@H]1C(=O)N[C@@H](CCSC)C(=O)N[C@@H](Cc1ccc(O)cc1)C(=O)O [compound 150] (H-WHFLQIKPGEPMY-OH; N-terminus and C-terminus assumed)
  Inhibition at 50 μM: <90%
  Inhibition at 100 μM: <90%

## CSCC[C@H](NC(=O)[C@@H]1CCCN1C(=O)[C@H](CCC(N)=O)NC(=O)CNC(=O)[C@@H]1CCCN1C(=O)[C@H](CCCCN)NC(=O)[C@H](CC(C)C)NC(=O)[C@H](CC(N)=O)NC(=O)[C@H](CC(C)C)NC(=O)[C@H](Cc1c[nH]c2ccccc12)NC(=O)[C@H](CCC(=O)O)NC(=O)[C@@H](N)CCCCN)C(=O)N[C@@H](Cc1ccc(O)cc1)C(=O)O [compound 151] (H-KEWLNLKPGQPMY-OH; N-terminus and C-terminus assumed)
  Inhibition at 50 μM: <90%
  Inhibition at 100 μM: <90%

## CC[C@H](C)[C@H](NC(=O)[C@H](CCC(N)=O)NC(=O)[C@H](CC(C)C)NC(=O)[C@H](Cc1c[nH]c2ccccc12)NC(=O)[C@H](CO)NC(=O)[C@@H](N)CCCCN)C(=O)N[C@@H](CCCCN)C(=O)N[C@@H](CC(N)=O)C(=O)NCC(=O)N[C@@H](CCC(N)=O)C(=O)N1CCC[C@H]1C(=O)N[C@@H](CCSC)C(=O)N[C@@H](Cc1ccc(O)cc1)C(=O)O [compound 152] (H-KSWLQIKNGQPMY-OH; N-terminus and C-terminus assumed)
  Inhibition at 50 μM: <90%
  Inhibition at 100 μM: <90%

## CC[C@H](C)[C@H](NC(=O)CNC(=O)[C@@H](N)CCCCN)C(=O)N[C@@H](CC(C)C)C(=O)N[C@H](C(=O)N[C@@H](CC(C)C)C(=O)N[C@@H](CCCCN)C(=O)N1CCC[C@H]1C(=O)NCC(=O)N[C@@H](CCC(N)=O)C(=O)N1CCC[C@H]1C(=O)N[C@@H](CCSC)C(=O)N[C@@H](Cc1ccc(O)cc1)C(=O)O)[C@@H](C)O [compound 153] (H-KGILTLKPGQPMY-OH; N-terminus and C-terminus assumed)
  Inhibition at 50 μM: <90%
  Inhibition at 100 μM: <90%

## CSCC[C@H](NC(=O)[C@@H]1CCCN1C(=O)[C@H](CO)NC(=O)CNC(=O)[C@@H]1CCCN1C(=O)[C@H](CCCCN)NC(=O)[C@H](CC(C)C)NC(=O)[C@H](C)NC(=O)[C@H](CC(C)C)NC(=O)[C@@H](NC(=O)[C@H](Cc1c[nH]cn1)NC(=O)[C@@H](N)CCCCN)C(C)C)C(=O)N[C@@H](Cc1ccc(O)cc1)C(=O)O [compound 154] (H-KHVLALKPGSPMY-OH; N-terminus and C-terminus assumed)
  Inhibition at 50 μM: <90%
  Inhibition at 100 μM: <90%

## CC[C@H](C)[C@H](NC(=O)[C@H](CCCCN)NC(=O)[C@@H](N)Cc1c[nH]c2ccccc12)C(=O)N[C@@H](CC(C)C)C(=O)N[C@H](C(=O)N[C@H](C(=O)N[C@@H](CCCCN)C(=O)N1CCC[C@H]1C(=O)NCC(=O)N[C@@H](CCC(N)=O)C(=O)N1CCC[C@H]1C(=O)N[C@@H](CCSC)C(=O)N[C@@H](Cc1ccc(O)cc1)C(=O)O)[C@@H](C)CC)[C@@H](C)O [compound 155] (H-WKILTIKPGQPMY-OH; N-terminus and C-terminus assumed)
  Inhibition at 50 μM: <90%
  Inhibition at 100 μM: <90%

## CSCC[C@H](NC(=O)[C@@H]1CCCN1C(=O)[C@H](CO)NC(=O)CNC(=O)[C@H](CC(N)=O)NC(=O)[C@H](CCCCN)NC(=O)[C@H](CC(C)C)NC(=O)[C@H](CCC(N)=O)NC(=O)[C@@H](NC(=O)[C@H](CC(=O)O)NC(=O)[C@H](Cc1c[nH]cn1)NC(=O)[C@@H](N)CCCCN)C(C)C)C(=O)N[C@@H](Cc1ccc(O)cc1)C(=O)O [compound 156] (H-KHDVQLKNGSPMY-OH; N-terminus and C-terminus assumed)
  Inhibition at 50 μM: <90%
  Inhibition at 100 μM: <90%

## CSCC[C@H](NC(=O)[C@@H]1CCCN1C(=O)[C@H](CCC(N)=O)NC(=O)CNC(=O)[C@@H](NC(=O)[C@H](CCC(N)=O)NC(=O)[C@H](Cc1ccccc1)NC(=O)[C@H](CC(N)=O)NC(=O)CNC(=O)[C@H](Cc1c[nH]c2ccccc12)NC(=O)[C@H](Cc1c[nH]cn1)NC(=O)[C@@H](N)Cc1c[nH]c2ccccc12)[C@@H](C)O)C(=O)N[C@@H](Cc1ccc(O)cc1)C(=O)O [compound 157] (H-WHWGNFQTGQPMY-OH; N-terminus and C-terminus assumed)
  Inhibition at 50 μM: <90%
  Inhibition at 100 μM: 97.14%

## CSCC[C@H](NC(=O)[C@@H]1CCCN1C(=O)[C@H](CCC(=O)O)NC(=O)CNC(=O)[C@@H]1CCCN1C(=O)[C@H](CCCCN)NC(=O)[C@H](CC(C)C)NC(=O)[C@H](CC(N)=O)NC(=O)[C@H](CC(C)C)NC(=O)[C@H](Cc1c[nH]c2ccccc12)NC(=O)[C@H](Cc1c[nH]cn1)NC(=O)[C@@H]1CCCN1)C(=O)N[C@@H](Cc1ccc(O)cc1)C(=O)O [compound 158] (H-PHWLNLKPGEPMY-OH; N-terminus and C-terminus assumed)
  Inhibition at 50 μM: <90%
  Inhibition at 100 μM: <90%

## CSCC[C@H](NC(=O)[C@H](CO)NC(=O)[C@H](CCC(N)=O)NC(=O)CNC(=O)[C@@H]1CCCN1C(=O)[C@H](CCCCN)NC(=O)[C@H](Cc1ccccc1)NC(=O)[C@H](CC(N)=O)NC(=O)[C@H](CC(C)C)NC(=O)[C@H](CO)NC(=O)[C@H](CCCCN)NC(=O)[C@@H](N)Cc1c[nH]c2ccccc12)C(=O)N[C@@H](Cc1ccc(O)cc1)C(=O)O [compound 159] (H-WKSLNFKPGQSMY-OH; N-terminus and C-terminus assumed)
  Inhibition at 50 μM: <90%
  Inhibition at 100 μM: <90%

## CSCC[C@H](NC(=O)[C@@H]1CCCN1C(=O)[C@H](CCC(N)=O)NC(=O)CNC(=O)[C@@H]1CCCN1C(=O)[C@H](CCCCN)NC(=O)[C@H](CC(C)C)NC(=O)[C@H](CO)NC(=O)[C@@H](NC(=O)[C@H](Cc1c[nH]c2ccccc12)NC(=O)[C@H](Cc1c[nH]cn1)NC(=O)[C@@H]1CCCN1)C(C)C)C(=O)N[C@@H](Cc1ccc(O)cc1)C(=O)O [compound 160] (H-PHWVSLKPGQPMY-OH; N-terminus and C-terminus assumed)
  Inhibition at 50 μM: <90%
  Inhibition at 100 μM: <90%
